Experimental data from US10730848B2 (priority 2013, dated 2020).
“Also recorded” adds a separate entry of the source. Like-named read-outs stand apart in the source and are kept apart here.

Experiments:
[1] = system: EGFR; assay type: cell-based; details: 15-30 min
[2] = system: influenza A/WSN/33 virus; assay type: cell-based
[3] = system: HdCDT
[4] = system: MEK2; assay type: cell-based, murine
[5] = system: PA; assay type: cell-based
[6] = system: Nipah-pseudotyped lentivirus; assay type: cell-based
[7] = system: transferrin (Tf); assay type: cell-based
[8] = system: VSV-pseudotyped lentivirus; assay type: cell-based
[9] = system: exotoxin A from Pseudomonas aeruginosa (ExoA); assay type: cell-based
[10] = system: PA+LFnDTA; assay type: cell-based
[11] = system: anthrax lethal toxin (LT); assay type: cell-based, mice
[12] = system: THP-1 cells; assay type: cell-based, human
[13] = system: EGF; assay type: cell-based
[14] = system: acidic compartments; assay type: cell-based
[15] = system: anthrax lethal toxin (LT); assay: cells; assay type: cell-based, murine; details: for IC50: Mus musculus
[16] = system: EcCDT
[17] = system: caspase-1; assay type: cell-based, mice
[18] = system: F. tularensis LVS; assay type: cell-based
[19] = system: GFP-expressing Armstrong variant of LCMV; assay type: cell-based
[20] = system: LT; details: rat, in vivo
[21] = system: Diphtheria toxin; assay type: cell-based

SMILES: Cc1cccc(C)c1NC(=O)N/N=C/c1ccc(Br)cc1 [Compound 1, N^1-(4-BROMOBENZYLIDENE)-N^4-(2,6-DIMETHYLPHENYL)SEMICARBAZONE]
- EGFR degradation at early times post EGF stimulation [1]: Slows EGFR-Degradation at 15 Minutes; also recorded: significantly less EGFR degraded at 30 min
- influenza virus infection (reporter activation) [2]: Inhibits Entry of Influenza virus; also recorded: completely inhibited infection; also recorded: partial protection
- HdCDT localization in EEA-1-positive vesicles [3]: Traps HdCDT in Enlarged EEA-1-Positive Vesicles
- cytotoxicity induced by Hd-CDT [3]: Inhibits cytotoxicity induced by Hd-CDT
- LT-mediated cleavage of MEK2 [4]: inhibits LT-mediated cleavage of MEK-2; also recorded: completely abrogated
- binding of PA83 to cells or proteolytic processing to PA63 [5]: did not block
- infection by Nipah-pseudotyped lentivirus [6]: Does Not Inhibit Infection; also recorded: did not inhibit
- transferrin recycling to the cell surface [7]: Does Not Inhibit Transferrin Receptor Recycling to the Plasma Membrane; also recorded: had no affect
- infection by VSV-G pseudotyped virus [8]: Inhibits Infection by Low pH-dependent VSV-pseudotyped lentivirus; also recorded: effectively inhibited; also recorded: neutralized
- protection of HeLa cells from ExoA [9]: effectively protected
- protection from PA+LFnDTA [10]: Protects Cells from PA+LFnDTA; also recorded: resistant
- protection of BMDMs from killing by LT [11]: protected
- trafficking of Texas-red dextran to phagosomes [12]: Does Not Block Texas Red-Dextran Trafficking to Phagosomes; also recorded: Neither EGA nor bafilomycin A1 inhibited
- EGF retention in EEA1-positive endosomes [13]: Results in EGF Retention in EEA1+ Endosomes; also recorded: retained in enlarged endosomes
- stabilization of EGF [13]: stabilized EGF up to 60 min
- cell-associated Lysotracker Red fluorescence (neutralization of acidic compartments) [14]: Does Not Neutralize Acidic Compartments; also recorded: did not reduce
- rescued viability, of unintoxicated controls [15]: up to 100%
- time after LT at which addition still completely protects cells from killing [15]: up to 15 minutes
- IC50 ([15]; RAW264.7): 1.4 µM
- IC50 ([15]; RAW264.7, read-out: IC50 (In uM)): 1.27 µM
- IC50 ([15]; RAW264.7, read-out: IC50, inhibition of LT-induced cell death): 1.4 µM
- IC50 ([15]; RAW264.7, read-out: IC50 in cell-based LT intoxication experiments): 1.4 µM
- intoxication (cell cycle arrest) by EcCDT [16]: did not inhibit intoxication
- LT-mediated caspase-1 activation [17]: inhibits LT-mediated caspase-1 activation; also recorded: active caspase-1 was not detected
- phagocytic uptake of F. tularensis LVS [18]: Does Not Block Phagocytic Uptake of F. tularensis; also recorded: Neither EGA nor bafilomycin A1 blocked
- acute LCMV infection [19]: Reduces Acute LCMV Infection; also recorded: decreased the total number of cells infected and the amount of virus being produced
- tolerability [20]: well tolerated in rats
- protection of HeLa cells from DT [21]: effectively protected
